Molecules are shown by their SMILES. Like-named read-outs stand apart in the source and are kept apart here. A value given as a limit tells only on which side of the number the result lay.

We go through one compound from patent US11414425B2 (priority 2018, dated 2022).

Data set [1] is classed as in vivo, Long Evans rats. The note with it: i.v. The protocol: (§1) Food and water were available ad libitum.
For plasma exposures, blood samples were centrifuged at 14000 rpm for 16 minutes. After centrifuging, 50 ul of supernatant (plasma) from each sample was added to 200 μl of acetonitrile plus 0.1% formic acid. […] Samples were sonicated for 5 minutes in an ultrasonic water bath, followed by centrifugation for 30 minutes, at 16000 RPM. 100 ul of supernatant was removed from each sample vial and placed in a new glass auto sample vial, followed by the addition of 300 μl of sterile water (pH 6.5).
Additional studies were conducted in aged Long-Evans rats in order to determine the exposures at the behaviorally relevant doses in the cognition studies. Exposure in young Long-Evans rats was also determined to bridge with the receptor occupancy studies that were conducted in young Long-Evans rats. Exposures in young and aged Long-Evans rats were relatively similar (Table 4, FIG. 4).

The subject of a further data set is aged-impaired (AI) rats. The data set can be described thus: Radial Arm Maze (RAM) behavioral task, spatial memory retention. The note with it: 3 mg/kg ip. The class given is in vivo, rat. The text has this:
A Radial Arm Maze (RAM) behavioral task is one example of a cognitive test, specifically testing spacial memory (Chappell et al. Neuropharmacology 37: 481-487, 1998). The RAM apparatus consists of, e.g., eight equidistantly spaced arms. A maze arm projects from each facet of a center platform. A food well is located at the distal end of each arm. Food is used as a reward. Blocks can be positioned to prevent entry to any arm. Numerous extra maze cues surrounding the apparatus may also be provided. After habituation and training phases, spatial memory of the subjects may be tested in the RAM under control or test compound-treated conditions. As a part of the test, subjects are pretreated before trials with a vehicle control or one of a range of dosages of the test compound. At the beginning of each trial, a subset of the arms of the eight-arm maze is blocked. Subjects are allowed to obtain food on the unblocked arms to which access is permitted during this initial “information phase” of the trial. Subjects are then removed from the maze for a delay period, e.g., a 60 second delay, a 15 minute delay, a one-hour delay, a two-hour delay, a six hour delay, a 24 hour delay, or longer) between the information phase and the subsequent “retention test,” during which the barriers on the maze are removed, thus allowing access to all eight arms. […] The identity and configuration of the blocked arms vary across trials. The number of “errors” the subjects make during the retention test phase is tracked. An error occurs in the trial if the subjects entered an arm from which food had already been retrieved in the pre-delay component of the trial, or if it re-visits an arm in the post-delay session that had already been visited. A fewer number of errors would indicate better spatial memory. The number of errors made by the test subject, under various test compound treatment regimes, can then be compared for efficacy of the test compound in treating cognitive impairment associated with CNS disorders.
The effects of methyl 3,5-diphenylpyridazine-4-carboxylate on the in vivo spatial memory retention of aged-impaired (AI) rats were assessed in a Radial Arm Maze (RAM) behavioral task using vehicle control and four different dosage levels of methyl 3,5-diphenylpyridazine-4-carboxylate (0.1 mg/kg, 0.3 mg/kg, 1 mg/kg and 3 mg/kg, ip). RAM behavioral tasks were performed on eight AI rats. All five treatment conditions (vehicle and four dosage levels) were tested on all eight rats.
The RAM apparatus used consisted of eight equidistantly-spaced arms. An elevated maze arm (7 cm width×75 cm length) projected from each facet of an octagonal center platform (30 cm diameter, 51.5 cm height). Clear side walls on the arms were 10 cm high and were angled at 65° to form a trough. […]

In a further data set the target is α5-containing GABAAR (Homo sapiens, UniProt P18507+P31644). The note with it: (EC20); cited from earlier work.
Sequence of α5-containing GABAAR (P31644 32-462): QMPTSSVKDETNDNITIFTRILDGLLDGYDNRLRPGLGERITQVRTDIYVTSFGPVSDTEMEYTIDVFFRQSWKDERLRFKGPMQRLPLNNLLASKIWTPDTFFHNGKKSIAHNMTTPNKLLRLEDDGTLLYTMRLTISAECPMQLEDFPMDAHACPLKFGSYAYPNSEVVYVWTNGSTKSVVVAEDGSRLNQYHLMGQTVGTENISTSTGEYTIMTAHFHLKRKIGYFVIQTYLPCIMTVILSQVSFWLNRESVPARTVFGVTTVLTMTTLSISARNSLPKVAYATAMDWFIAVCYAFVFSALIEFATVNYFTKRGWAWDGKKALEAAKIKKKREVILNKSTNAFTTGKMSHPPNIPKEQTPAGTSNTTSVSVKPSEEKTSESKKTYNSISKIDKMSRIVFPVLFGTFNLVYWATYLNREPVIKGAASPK
Sequence of α5-containing GABAAR (P18507 40-475): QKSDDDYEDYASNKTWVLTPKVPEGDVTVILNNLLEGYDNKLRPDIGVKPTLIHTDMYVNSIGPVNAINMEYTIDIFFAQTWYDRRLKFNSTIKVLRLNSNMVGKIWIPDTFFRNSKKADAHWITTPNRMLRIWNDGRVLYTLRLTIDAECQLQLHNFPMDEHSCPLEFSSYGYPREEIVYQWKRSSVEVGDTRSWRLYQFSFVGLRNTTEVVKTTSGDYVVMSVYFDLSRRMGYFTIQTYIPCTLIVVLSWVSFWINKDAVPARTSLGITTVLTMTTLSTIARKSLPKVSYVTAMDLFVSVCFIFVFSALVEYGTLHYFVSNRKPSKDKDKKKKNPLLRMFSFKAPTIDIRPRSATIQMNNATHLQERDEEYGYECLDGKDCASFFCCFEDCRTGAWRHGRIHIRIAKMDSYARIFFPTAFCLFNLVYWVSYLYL
Sequence of α5-containing GABAAR (P28472 26-473, further chain): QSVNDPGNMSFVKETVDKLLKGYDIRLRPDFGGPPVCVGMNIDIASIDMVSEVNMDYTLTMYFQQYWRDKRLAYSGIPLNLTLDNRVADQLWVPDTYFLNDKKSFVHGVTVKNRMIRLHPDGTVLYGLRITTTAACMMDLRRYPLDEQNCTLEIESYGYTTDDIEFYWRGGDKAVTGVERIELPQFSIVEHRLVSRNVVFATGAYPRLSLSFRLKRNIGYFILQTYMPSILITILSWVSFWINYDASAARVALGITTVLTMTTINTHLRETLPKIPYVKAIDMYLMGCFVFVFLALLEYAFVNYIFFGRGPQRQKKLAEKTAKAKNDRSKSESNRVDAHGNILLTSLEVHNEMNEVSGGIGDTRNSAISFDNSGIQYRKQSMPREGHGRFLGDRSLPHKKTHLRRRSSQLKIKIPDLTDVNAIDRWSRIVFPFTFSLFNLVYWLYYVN
The next data set concerns the target T1, GABAAα5 receptor (Rattus norvegicus, UniProt P18508+P19969).
T1 construct: occupancy in the hippocampus (a region of high GABAAα5 receptor density); from tissue; host or cells: rat brain in vivo: hippocampus versus cerebellum
Briefly: in vivo. The class given is in vivo, Long Evans rats.
From the text: as §1

T1 sequence (P19969 32-464): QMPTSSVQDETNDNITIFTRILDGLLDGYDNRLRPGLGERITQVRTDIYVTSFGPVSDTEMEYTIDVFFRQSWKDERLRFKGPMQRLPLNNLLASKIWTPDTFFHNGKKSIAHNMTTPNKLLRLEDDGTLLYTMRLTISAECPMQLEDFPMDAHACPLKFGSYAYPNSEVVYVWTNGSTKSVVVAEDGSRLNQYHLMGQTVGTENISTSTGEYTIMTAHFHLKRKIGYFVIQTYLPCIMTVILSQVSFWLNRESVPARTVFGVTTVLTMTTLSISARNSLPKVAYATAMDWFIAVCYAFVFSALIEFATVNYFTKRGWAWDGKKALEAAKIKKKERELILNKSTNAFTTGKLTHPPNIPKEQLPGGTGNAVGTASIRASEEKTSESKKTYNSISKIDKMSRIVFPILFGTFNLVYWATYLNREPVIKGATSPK
T1 sequence (P18508 39-466): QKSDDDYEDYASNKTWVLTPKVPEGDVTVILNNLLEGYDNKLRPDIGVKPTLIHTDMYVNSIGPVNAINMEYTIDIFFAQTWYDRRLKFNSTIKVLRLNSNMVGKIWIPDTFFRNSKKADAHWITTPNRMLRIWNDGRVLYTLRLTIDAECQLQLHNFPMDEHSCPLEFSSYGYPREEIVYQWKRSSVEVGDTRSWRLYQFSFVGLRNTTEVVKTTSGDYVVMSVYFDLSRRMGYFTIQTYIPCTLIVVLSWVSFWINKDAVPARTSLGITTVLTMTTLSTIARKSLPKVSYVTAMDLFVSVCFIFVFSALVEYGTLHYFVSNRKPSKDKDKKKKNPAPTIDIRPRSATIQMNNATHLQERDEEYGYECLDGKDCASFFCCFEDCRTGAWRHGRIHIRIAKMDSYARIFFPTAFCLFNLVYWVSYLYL

For `COC(=O)c1c(-c2ccccc2)cnnc1-c1ccccc1` [Methyl 3,5-diphenylpyridazine-4-carboxylate, reference compound], the entries for the “increase in hippocampal exposure” value in data set [1] (dose from 0.1 to 1 mg/kg) and in data set [1] (dose from 1 to 10 mg/kg) were 12 fold and about 5 fold, respectively. For the same compound, the “increase in plasma exposure” value in data set [1] (dose from 1 to 10 mg/kg) is recorded as 12 fold. Besides, the “memory performance relative to vehicle control treatment” value in the data set with aged-impaired (AI) rats (two-hour delay RAM, t(7)=4.233, p=0.004) is recorded as “significantly improved memory performance”. Besides, the “average no. of errors ± standard error of the mean (SEM), retention test” value with aged-impaired (AI) rats (two-hour delay, AI rats) is on record as 1.31±0.40. The “α5 in vitro efficacy” value at α5-containing GABAAR is listed as “+27”. Also, the “GABAA α5 receptors occupied” value on GABAAα5 receptor (at exposures behaviorally active in aged-impaired rats, hippocampus) is recorded as “about 32%”. At GABAAα5 receptor (i.v., hippocampus/cerebellum ratio), the “receptor occupancy ED50, ratio method” value is 1.8 mg/kg. The receptor occupancy at 10 mg/kg on GABAAα5 receptor (rat, iv, 10 mg/kg, i.v., read-out: GABAA α5 receptor occupancy) was over 90%.
